Where a SMILES comes first, the peptide text is derived from it. [ ]: non-standard residue; d: D form. The star is where a group is joined. pNA = O=[N+]([O-])c1ccc(N*)cc1
Experiments:
[1] = molecular target: T1, Human tissue plasminogen activator (tPA) (Two chains, Sigma) (Homo sapiens, UniProt P00750); experiment: In vitro chromogenic assay for tissue plasminogen activator; type: biochemical; conditions: substrate concentration stated equal to Km under the present assay conditions; pH 7.5, ambient temperature; read-out: Km (S2288)
T1 construct: purchased Sigma
Description: (§1) The activities were determined as an initial rate of cleavage of the peptide p-nitroanilide by the enzyme. The cleavage product, p-nitroaniline, absorbs at 405 nm with a molar extinction coefficient of 9920M^-1 cm^-1.
(§2) 50 mM Tris HCl, 150 mM NaCl, 2.5 mM CaCl2, and
3. Human tissue plasminogen activator (tPA) (Two chains, Sigma) stock solution: 1 mg/mL, stored at -80° C. (working solution (2×): 1361 ng/mL in assay buffer, prepare prior to use).
3. S2288 (tPA assay) stock solution: 10 mM in deionized H2 O, stored at 4° C. (working solution (4×): 1484 μM in assay buffer).
(§3) Assays were performed in 96-well microtiter plates in a total volume of 200 μl. […] Concentrations of the standard inhibitor compound in the assay were from 5 μM to 0.021 μM in 1 to 3 dilution. Concentration of the test compounds in the assay typically were from 10 μM to 0.041 μM in 1 to 3 dilution. For potent test compounds, the concentrations used in the factor Xa assay were further diluted 100 fold (100 nM to 0.41 nM) or 1000 fold (10 nM to 0.041 nM). […]
(§4) The enzyme kinetics were measured at 405 nm at 10 seconds intervals for five minutes in a THERMOmax plate reader at ambient temperature.
(§5) Enzyme rates were calculated as mOD/min based on the first two minutes readings. The IC50 values were determined by fitting the data to the log-logit equation (linear) or the Morrison equation (non-linear) with an EXCEL spread-sheet. […]

[2] = molecular target: T2, Human thrombin (Homo sapiens, UniProt P00734); experiment: In vitro chromogenic assay for thrombin; type: biochemical; conditions: substrate concentration stated equal to Km under the present assay conditions; pH 7.5, ambient temperature; read-out: Km (S2302)
T2 construct: forms the prothrombinase complex which converts prothrombin to thrombin; purchased Enzyme Research Lab
Description: as §1, §2
2. Human thrombin stock solution: Stored at -80° C. (working solution (2×): 1200 ng/mL or 40 nM in assay buffer, prepare prior to use).
2. S2302 (Thrombin assay) stock solution: 10 mM in deionized H2 O, stored at 4° C. (working solution (4×): 1200, μM in assay buffer).
as §3, §4, §5

T1 sequence (P00750 311-562 limits assumed): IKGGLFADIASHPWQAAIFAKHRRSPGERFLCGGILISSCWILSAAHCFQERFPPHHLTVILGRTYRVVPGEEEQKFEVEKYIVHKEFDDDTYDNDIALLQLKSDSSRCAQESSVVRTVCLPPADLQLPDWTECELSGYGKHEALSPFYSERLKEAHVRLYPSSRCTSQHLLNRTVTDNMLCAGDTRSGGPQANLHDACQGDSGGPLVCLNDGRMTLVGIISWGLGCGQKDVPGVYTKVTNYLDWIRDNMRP
T1 sequence (P00750 36-310 partner limits assumed): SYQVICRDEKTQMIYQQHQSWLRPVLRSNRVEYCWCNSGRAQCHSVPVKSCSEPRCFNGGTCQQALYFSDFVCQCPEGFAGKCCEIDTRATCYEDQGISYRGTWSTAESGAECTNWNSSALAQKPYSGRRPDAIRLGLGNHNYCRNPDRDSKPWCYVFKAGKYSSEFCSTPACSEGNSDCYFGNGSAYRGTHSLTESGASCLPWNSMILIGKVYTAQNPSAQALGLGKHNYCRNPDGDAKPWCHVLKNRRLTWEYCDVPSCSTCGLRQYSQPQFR

SMILES	Km [1]	Km [2]
CC[C@@H](C)[C@@H](N)C(=O)N1CCC[C@H]1C(=O)N[C@@H](CCCN=C(N)N)C(=O)Nc1ccc([N+](=O)[O-])cc1 [Example S2288] (H-[dI]-Pro-Arg-pNA)	371 µM	–
N=C(N)NCCC[C@H](NC(=O)[C@H](Cc1ccccc1)NC(=O)[C@H]1CCCN1)C(=O)Nc1ccc([N+](=O)[O-])cc1 [Example S2302] (H-[dP]-Phe-Arg-pNA)	–	300 µM
